In US20230053688A1, “METHODS TO ALTER LATENCY IN EBV+ MALIGNANCIES” (Cornell University, priority 2020, published 2023):
Counter-ions that a name gives are not always drawn. Like-named read-outs stand apart in the source and are kept apart here.

Tested on: LMP1 expression in Kem I cells
Assay: microbe, parasite or virus in culture
Format: cell-based, EBV
Settings: for fold induction at 2.5 µM / fold induction at 1 µM: human gammaherpesvirus 4, 48 h; for Average LMP1 Fold Increase / Replicate 1-LMP1 Fold Increase / Replicate 2-LMP1 Fold Increase: Kem I cells, 48 hours; for Average LMP1 Fold Increase: average of replicates 1 and 2; for Replicate 1-LMP1 Fold Increase / Replicate 2-LMP1 Fold Increase: fold change in LMP1 transcript vs vehicle
[1] = read-out: Average LMP1 Fold Increase, Kem I cells, 2.5 uM, 48 hours, average of replicates 1 and 2
[2] = read-out: Replicate 1-LMP1 Fold Increase, Kem I cells, 2.5 uM, 48 hours, fold change in LMP1 transcript vs vehicle
[3] = read-out: Replicate 2-LMP1 Fold Increase, Kem I cells, 2.5 uM, 48 hours, fold change in LMP1 transcript vs vehicle

Row | Compound | fold induction at 2.5 µM [1] | fold induction at 2.5 µM [2] | fold induction at 2.5 µM [3] | Average LMP1 Fold Increase (2.5 uM) | Replicate 1-LMP1 Fold Increase (2.5 uM) | Replicate 2-LMP1 Fold Increase (2.5 uM) | further results
1 | C[C@H](CS)C(=O)N1CCC[C@H]1C(=O)O [Captopril] | 0.62 | 0.71 | 0.52 | – | – | – | –
2 | COc1ccccc1OCCNCC(O)COc1cccc2[nH]c3ccccc3c12 (stereo not drawn) [Carvedilol] | 0.88 | 0.89 | 0.87 | – | – | – | –
3 | Cc1ccc(-c2cc(C(F)(F)F)nn2-c2ccc(S(N)(=O)=O)cc2)cc1 [Celecoxib] | 0.62 | 0.63 | 0.62 | – | – | – | –
4 | COc1ccc([C@]2(C#N)CC[C@@H](C(=O)O)CC2)cc1OC1CCCC1 [Cilomilast] | 1.06 | 0.95 | 1.18 | – | – | – | –
5 | C[C@@H](NCCCc1cccc(C(F)(F)F)c1)c1cccc2ccccc12 [Cinacalcet HCl] | 0.75 | 1.17 | 0.34 | – | – | – | –
6 | Nc1nc(Cl)nc2c1ncn2[C@H]1C[C@H](O)[C@@H](CO)O1 [Cladribine] | – | – | – | – | – | – | fold induction at 1 µM (read-out: Average LMP1 Fold Increase, Kem I cells, 1 uM, 48 hours, average of replicates 1 and 2): 38.7; fold induction at 1 µM (read-out: Replicate 1-LMP1 Fold Increase, Kem I cells, 1 uM, 48 hours, fold change in LMP1 transcript vs vehicle): 71.4; fold induction at 1 µM (read-out: Replicate 2-LMP1 Fold Increase, Kem I cells, 1 uM, 48 hours, fold change in LMP1 transcript vs vehicle): 6.02
7 | CN1CCC[C@@H]1CCO[C@](C)(c1ccccc1)c1ccc(Cl)cc1 [Clemastine Fumarate] | 0.67 | 0.64 | 0.69 | – | – | – | –
8 | C=C1C(=O)O[C@@H]2/C=C(\C)CC/C=C(\C)CC[C@@H]12 [Costunolide] | 1.21 | 0.79 | 1.62 | – | – | – | –
9 | CC1(COc2ccc3c(c2)ncn3-c2ccc3cccc(N4CCC(N)CC4)c3n2)COC1 [Crenolanib (CP-868596)] | – | – | – | 4.04 | 2.56 | 5.53 | –
10 | C[C@H]1COC2=C1C(=O)C(=O)c1c2ccc2c1CCCC2(C)C [Cryptotanshinone] | 0.85 | 0.94 | 0.77 | – | – | – | –
11 | CC(=O)O[C@]1(C(C)=O)CC[C@H]2[C@@H]3C=C(Cl)C4=CC(=O)[C@@H]5C[C@@H]5[C@]4(C)[C@H]3CC[C@@]21C [Cyproterone Acetate] | 0.26 | 0.27 | 0.24 | – | – | – | –
12 | Nc1ccn([C@@H]2O[C@H](CO)[C@@H](O)[C@@H]2O)c(=O)n1 [Cytarbine] | – | – | – | – | – | – | Average LMP1 Fold Increase (1 uM): 2.31; Replicate 1-LMP1 Fold Increase (1 uM): 2.61; Replicate 2-LMP1 Fold Increase (1 uM): 2.01
13 | c1ccc(CNc2nc(NCc3ccccc3)c3ccccc3n2)cc1 [DBeQ] | – | – | – | 0.99 | 0.72 | 1.25 | –
14 | CNC(=O)c1cc(Oc2ccc(NC(=O)Nc3cc(C(C)(C)C)nn3-c3ccc4ncccc4c3)c(F)c2)ccn1 [DCC-2036 (Rebastinib)] | – | – | – | 0.38 | 0.50 | 0.25 | –
15 | CC(C)Oc1ccc(-c2cnc3c(-c4ccnc5ccccc45)cnn3c2)cc1 [DMH1] | – | – | – | 0.75 | 0.21 | 1.28 | –
16 | Cc1ccc2c(=O)c3cccc(CC(=O)O)c3oc2c1C [DMXAA (Vadimezan)] | – | – | – | 0.87 | 0.44 | 1.29 | –
17 | CC(C)(C)c1nc(-c2cccc(NS(=O)(=O)c3c(F)cccc3F)c2F)c(-c2ccnc(N)n2)s1 [Dabrafenib (GSK2118436)] | – | – | – | 0.92 | 0.61 | 1.22 | –
18 | CCC(CC)CC1(C(=O)Nc2ccccc2SC(=O)C(C)C)CCCCC1 [Dalcetrapib (JTT-705, RO4607381)] | – | – | – | 0.98 | 0.61 | 1.34 | –
19 | CCOc1ccc(Cc2cc([C@@H]3O[C@H](CO)[C@@H](O)[C@H](O)[C@H]3O)ccc2Cl)cc1 [Dapagliflozin] | 1.01 | 0.69 | 1.34 | – | – | – | –
